Assay results: patent US8329658B2, “Arylalkyl and heteroarylalkyl derivatives of cyclosporine A for the treatment and prevention of viral infection” (Scynexis, Inc., priority 2005, dated 2012)

Columns and labels:
[1] = system: human hepatoma cell line ET (lub ubi neo/ET); assay: Cytotoxicity (colorimetric cell number assay) in HCV replicon ET cell line; conditions: for IC50: read-out: Cytotoxicity IC50, concentration inhibiting cell viability by 50%, ET cells, 72 hours; for IC90: read-out: Cytotoxicity IC90, concentration inhibiting cell viability by 90%, ET cells, 72 hours
Text: (§1) Compounds were examined in the human hepatoma cell line ET (lub ubi neo/ET), a HCV RNA replicon containing a stable luciferase (LUC) reporter. The HCV RNA replicon ET contains the 5′ end of HCV (with the HCV Internal Ribosome Entry Site (IRES) and the first few amino acids of the HCV core protein) which drives the production of a firefly luciferase (LUC), ubiquitin, and neomycin phosphotransferase (NeoR) fusion protein. Ubiquitin cleavage releases the LUC and NeoR proteins. The EMCV IRES element controls the translation of the HCV […] NS3-NS5. The NS3 protein cleaves the HCV polyprotein to release the mature NS3, NS4A, NS4B, NS5A and NS5B proteins that are required for HCV replication. At the 3′ end of the replicon is the authentic 3′ NTR of HCV. The activity of the LUC reporter is directly proportional to HCV replication levels and positive-control antiviral compounds produce a reproducible antiviral response using the LUC endpoint.
(§2) The compounds were dissolved in DMSO at five half-log concentrations each, ranging from either 0.02 to 2 μM or 0.2 to 20 μM. Subconfluent cultures of the ET line were plated out into 96 well plates dedicated for the analysis of cell numbers (cytotoxicity) or antiviral activity and the next day the compounds were added to the appropriate wells. […] Compound EC50 and EC90 values were derived from HCV RNA levels assessed as HCV RNA replicon derived LUC activity. […] Compound IC50 and IC90 values were calculated using a colorimetric assay as an indication of cell numbers and cytotoxicity. The activity of the LUC reporter is directly proportional to HCV RNA levels in the human cell line. The HCV-replicon assay was validated in parallel experiments using interferon-alpha-2b as a positive control.

HCV RNA replicon ET = assay: HCV RNA replicon luciferase (LUC) reporter assay in ET cell line; format: cell-based; conditions: replicon LUC activity, ET cells, 72 hours; for EC50: concentration reducing viral replication by 50%; for EC90: concentration reducing viral replication by 90%
Text: as §1, §2

HIV-1IIIB = assay: HIV MTS cytoprotection assay in CEM-SS cells; format: cell-based, human immunodeficiency virus-1 (HIV); conditions: concentration inhibiting virus replication by 50%, 6 days post-infection, NS is no significant activity
Protocol: (§3) The compounds of the present invention were tested for antiretroviral activity against human immunodeficiency virus-1 (HIV) using infection of the human T-lymphoblastoid cell line, CEM-SS, with the HIV strain HIV-1IIIB (Weislow et al., 1989, J. Natl. Cancer Inst. 81, 577-586). In this MTS cytoprotection assay, each experiment included cell control wells (cells only), virus control wells (cells plus virus), drug toxicity wells (cells plus drug only), drug colorimetric control wells (drug only) as well as experimental wells (drug plus cells plus virus). Compounds were first dissolved in DMSO and tested using six half-log dilutions, starting with a high concentration of either 20 or 2 μM. […] was added to each well in a volume of 50 μL, the amount of virus determined to give approximately 90% cell killing at 6 days post-infection. At assay termination, assay plates were stained with the soluble tetrazolium-based dye MTS (CellTiter 96 Reagent, Promega) to determine cell viability and quantify compound toxicity. MTS is metabolized by the mitochondria enzymes of metabolically active cells to yield a soluble formazan product, providing a quantitative analysis of cell viability and compound cytotoxicity. The assay was validated in parallel experiments using Zidovudine (3′-azido-3′-deoxythymidine or AZT) as a positive control. The assay included determinations of compound EC50 (concentration inhibiting virus replication by 50%), IC50 (concentration resulting in 50% inhibition of cell growth) and a selectivity index (IC50/EC50).

[2] = system: human T-lymphoblastoid cell line, CEM-SS; assay: Cytotoxicity (MTS) in CEM-SS cells; format: cell-based; conditions: concentration resulting in 50% inhibition of cell growth
Protocol: as §3

3-benzyloxycyclosporin [Compound B]
IC50 [1]: 20000 nM
IC90 [1]: > 20000 nM
EC50 (HCV RNA replicon ET): 260 nM
EC90 (HCV RNA replicon ET): 590 nM
EC50 (HIV-1IIIB): 590 nM
IC50 [2]: > 20000 nM

C/C=C/C[C@@H](C)[C@@H](O)[C@H]1C(=O)N[C@@H](CC)C(=O)N(C)C(OCc2cccs2)C(=O)N(C)[C@@H](CC(C)C)C(=O)N[C@@H](C(C)C)C(=O)N(C)[C@@H](CC(C)C)C(=O)N[C@@H](C)C(=O)N[C@H](C)C(=O)N(C)[C@@H](CC(C)C)C(=O)N(C)[C@@H](CC(C)C)C(=O)N(C)[C@@H](C(C)C)C(=O)N1C (stereo partly drawn) [C, 3-[(thiophene-2-yl)methoxy]cyclosporin]
IC50 [1]: 11000 nM
IC90 [1]: > 20000 nM
EC50 (HCV RNA replicon ET): 350 nM
EC90 (HCV RNA replicon ET): 1260 nM
EC50 (HIV-1IIIB): 900 nM
IC50 [2]: > 20000 nM

CC=CCC(C)C(O)C1C(=O)NC(CC)C(=O)N(C)C(SCc2ccccc2)C(=O)N(C)C(CC(C)C)C(=O)NC(C(C)C)C(=O)N(C)C(CC(C)C)C(=O)NC(C)C(=O)NC(C)C(=O)N(C)C(CC(C)C)C(=O)N(C)C(CC(C)C)C(=O)N(C)C(C(C)C)C(=O)N1C (stereo not drawn) [Compound A, 3-benzylthiocyclosporin]
IC50 [1]: 20000 nM
IC90 [1]: > 20000 nM
EC50 (HCV RNA replicon ET): 720 nM
EC90 (HCV RNA replicon ET): 1840 nM
EC50 (HIV-1IIIB): 530 nM
IC50 [2]: > 20000 nM

C/C=C/C[C@@H](C)[C@@H](O)[C@H]1C(=O)N[C@@H](CC)C(=O)N(C)C(OCc2ccoc2)C(=O)N(C)[C@@H](CC(C)C)C(=O)N[C@@H](C(C)C)C(=O)N(C)[C@@H](CC(C)C)C(=O)N[C@@H](C)C(=O)N[C@H](C)C(=O)N(C)[C@@H](CC(C)C)C(=O)N(C)[C@@H](CC(C)C)C(=O)N(C)[C@@H](C(C)C)C(=O)N1C (stereo partly drawn) [Compound E, 3-[(furan-3-yl)methoxy]cyclosporin]
IC50 [1]: > 20000 nM
IC90 [1]: > 20000 nM
EC50 (HCV RNA replicon ET): 250 nM
EC90 (HCV RNA replicon ET): 600 nM
EC50 (HIV-1IIIB): 880 nM
IC50 [2]: > 20000 nM

C/C=C/C[C@@H](C)[C@@H](O)[C@H]1C(=O)N[C@@H](CC)C(=O)N(C)C(OCc2ccco2)C(=O)N(C)[C@@H](CC(C)C)C(=O)N[C@@H](C(C)C)C(=O)N(C)[C@@H](CC(C)C)C(=O)N[C@@H](C)C(=O)N[C@H](C)C(=O)N(C)[C@@H](CC(C)C)C(=O)N(C)[C@@H](CC(C)C)C(=O)N(C)[C@@H](C(C)C)C(=O)N1C (stereo partly drawn) [D, 3-[(furan-2-yl)methoxy]cyclosporin]
IC50 [1]: 18000 nM
IC90 [1]: > 20000 nM
EC50 (HCV RNA replicon ET): 290 nM
EC90 (HCV RNA replicon ET): 570 nM
EC50 (HIV-1IIIB): 580 nM
IC50 [2]: > 20000 nM

C/C=C/C[C@@H](C)[C@@H](O)[C@H]1C(=O)N[C@@H](CC)C(=O)N(C)C(OCc2ccc(OC(F)(F)F)cc2)C(=O)N(C)[C@@H](CC(C)C)C(=O)N[C@@H](C(C)C)C(=O)N(C)[C@@H](CC(C)C)C(=O)N[C@@H](C)C(=O)N[C@H](C)C(=O)N(C)[C@@H](CC(C)C)C(=O)N(C)[C@@H](CC(C)C)C(=O)N(C)[C@@H](C(C)C)C(=O)N1C (stereo partly drawn) [F, 3-[(4-trifluoromethoxy)benzyloxy]cyclosporin]
IC50 [1]: > 20000 nM
IC90 [1]: > 20000 nM
EC50 (HCV RNA replicon ET): 1180 nM
EC90 (HCV RNA replicon ET): 5420 nM
EC50 (HIV-1IIIB): > 20000 nM
IC50 [2]: > 20000 nM

C/C=C/C[C@@H](C)[C@@H](O)[C@H]1C(=O)N[C@@H](CC)C(=O)N(C)C(OCc2ccsc2)C(=O)N(C)[C@@H](CC(C)C)C(=O)N[C@@H](C(C)C)C(=O)N(C)[C@@H](CC(C)C)C(=O)N[C@@H](C)C(=O)N[C@H](C)C(=O)N(C)[C@@H](CC(C)C)C(=O)N(C)[C@@H](CC(C)C)C(=O)N(C)[C@@H](C(C)C)C(=O)N1C (stereo partly drawn) [G, 3-[(thiophene-3-yl)methoxy]cyclosporin]
IC50 [1]: > 20000 nM
IC90 [1]: > 20000 nM
EC50 (HCV RNA replicon ET): 350 nM
EC90 (HCV RNA replicon ET): 400 nM
EC50 (HIV-1IIIB): 3000 nM
IC50 [2]: > 20000 nM
